Assay results as given in patent publication US10696972B2, “Method for improving learning” (St. Jude Children's Research Hospital, Inc., priority 2015, dated 2020).

Tests used:
A1R mRNA = assay: Cortical map plasticity in the ACx after passive tone exposure, A1R shRNA knock-down; assay type: in vivo, mouse; conditions: adult WT mice, shRNA injected into auditory thalamus (MGv), passive exposure to a 9.8-kHz tone
Method: (§1) Mice were housed in ventilated sound-proof chambers with ad libitum food and water and maintained on a 12:12 hour light:dark cycle. Mice were exposed to continuous sound stimulation for 5 to 14 days, consisting of repeated trains of tones. Each train consisted of 5 tones delivered at 5 Hz. A pure tone of certain frequencies (7 kHz, 7.9 kHz, 9.8 kHz, 11.4 kHz, or 16.4 kHz) was used. The tone duration was 50 ms with 5-ms cosine onset/offset ramps at 70-dB sound pressure level (SPL). Trains were separated by 1 s. Naïve (nonexposed) mice were housed in a similar fashion but received no sound stimulation.
Mice were anesthetized with sodium pentobarbital (50 mg/kg) and chlorprothixene (0.2 mg) followed by supplemental doses of sodium pentobarbital (15-25 mg/kg supplements as needed). Spike responses to sound stimulation were recorded from the primary (A1) ACx (depth, 350-420 μm from the pial surface) with Epoxylite-coated tungsten microelectrodes (2.0 MΩ at 1 kHz; FHC, Brunswick, Me.). Frequency response areas (FRAs) were measured with randomly presented tone pips of varying frequency (4.0-44.6 kHz in 0.1-octave increments, 20-ms duration, 5-ms raised cosine onset/offset ramps, 500-ms intertone interval) and level (0- to 70-dB SPL in 10-dB increments). Tones were generated by an electrostatic speaker [Tucker-Davis Technologies (TDT), Alachua, Fla.], which was placed 10 cm from the contralateral ear of the mouse. The ipsilateral ear was plugged with agar. Spike responses to tone pips were amplified with an RA4PA fiber optic preamplifier, filtered (high pass=250 Hz, low pass=5000 Hz), and digitized with an RZ6 real-time processor (TDT). The threshold for spike detection was set at a signal-to-noise ratio of 3:1. TDT System 3 software (OpenEx) controlled both sound stimulus generation and response acquisition and was used for data storage. Cortical maps in the A1 were generated from FRAs measured at 30 to 40 sites per mouse, each separated by 50 to 100 μm. FRAs were analyzed with TDT System 3 software (Open Explorer) for characteristic frequencies (CFs) collated in bins of 0.22 octaves. […]

Nt5e = assay: Cortical map plasticity in the ACx after passive tone exposure, Nt5e shRNA knock-down; assay type: in vivo, mouse; conditions: mature WT mice, shRNA injected into auditory thalamus, exposed to 11.4 kHz
Method: as §1
Mice were anesthetized with sodium pentobarbital (50 mg/kg) and chlorprothixene (0.2 mg) followed by supplemental doses of sodium pentobarbital (15-25 mg/kg supplements as needed). Spike responses to sound stimulation were recorded from the primary (A1) ACx (depth, 350-420 μm from the pial surface) with Epoxylite-coated tungsten microelectrodes (2.0 MΩ at 1 kHz; FHC, Brunswick, Me.). Frequency response areas (FRAs) were measured with randomly presented tone pips of varying frequency (4.0-44.6 kHz in 0.1-octave increments, 20-ms duration, 5-ms raised cosine onset/offset ramps, 500-ms intertone interval) and level (0- to 70-dB SPL in 10-dB increments). […] Cortical maps in the A1 were generated from FRAs measured at 30 to 40 sites per mouse, each separated by 50 to 100 μm. […]

“A1R shRNA (789): shRNA against A1R mRNA, lentivector; coding DNA 5′-CCAGAAACCCAGCATCCTCATCTACATTG-3′ (SEQ ID NO: 11)” was tested, and the ACx map plasticity (A1R mRNA) was “sufficient to induce ACx map plasticity”.

“A1R shRNA (123): shRNA against A1R mRNA, lentivector; coding DNA 5′-CGATGCTACCTTCTGCTTCATCGTATCCC-3′ (SEQ ID NO: 10)” was tested, and the ACx map plasticity (A1R mRNA) was “sufficient to induce ACx map plasticity”.

For “Nt5e shRNA (1264): shRNA against Nt5e, lentivector; coding DNA 5′-ACATTTGACCTCGTCCAATTAAAAGGGTC-3′ (SEQ ID NO: 12)”, the “percentage of sites with a CF of 11.4 kHz compared to naïve mice” value (Nt5e) was “significantly larger percentage of sites with a CF of 11.4 kHz”.

“Nt5e shRNA (1366): shRNA against Nt5e, lentivector; coding DNA 5′-GGAATCCATGTGGTGTACGATATTAACCG-3′ (SEQ ID NO: 13)” was tested, and the “percentage of sites with a CF of 11.4 kHz compared to naïve mice” value (Nt5e) was “significantly larger percentage of sites with a CF of 11.4 kHz”.

“scrambled (control) shRNA: scrambled control shRNA; coding DNA 5′-TACGTCCAAGGTCGGGCAGGAAGA-3′ (SEQ ID NO: 9) [reference compound]” was tested, and the ACx map plasticity (A1R mRNA) was “no cortical map plasticity”.
